For 85 compounds, AC50 results are on record in PubChem BioAssay AID463206 (Broad Institute, 2010).

As usually defined, the AC50 is the concentration giving half of the maximal activity seen.

The source made the active and inactive calls.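 The calls were made as follows: active = caspase luminescence falls with dose and the half-maximal concentration AC50 from the fitted curve is at or below a set limit; inconclusive = flat fit at 30 to 70% signal loss, or invalid fit; inactive = AC50 above the limit, or signal rises instead.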

This assay deals with INS-1E cytokine-induced caspase-3/7, Caspase-Glo luminescence, 48 h. In words: inhibitors of cytokine-induced caspase-3/7 activity, dose response, orthogonal assay for beta-cell apoptosis protection project, INS-1E rat cells, luminescence (AID 463206).
In the case of `O=C(COC(=O)Cn1cnc2ccccc2c1=O)Nc1ccc2c(c1)OCO2`, the AC50 was > 26 µM (inactive).

Take `CC1CCC(C(C)C)C(OC(=O)Cn2c(COc3ccccc3)[n+](C)c3ccccc32)C1` (stereo not given): the AC50 was > 26 µM (inactive).

As to `COc1ccc([N+](=O)[O-])c(S(=O)(=O)c2ccc(Cl)cc2)n1`, the AC50 is > 26 µM (inactive).

`Nc1c(N(CCC2=CCCCC2)C(=O)COc2ccc(F)cc2)c(=O)[nH]c(=O)n1Cc1ccccc1`: the AC50 is > 26 µM (inactive).

In the case of `Cc1cc2c(NCCc3ccccc3)ncnc2s1`, the AC50 is > 26 µM (inactive).

`C[N+]1=C(/C=C/Nc2ccccc2Cl)C(C)(C)c2ccccc21`: the AC50 was > 26 µM (inactive).

`O=C(CN1CCCc2ccccc21)N/N=C/c1ccccc1O`: the AC50 was > 26 µM (inactive).

Regarding `Cc1ccc(-c2nn(-c3ccccc3)cc2/C=N/NC(=O)c2ccc(Br)o2)cc1`, the AC50 is > 26 µM (inactive).

On to `Clc1ccc(OCCN2CCN(c3ncnc4sccc34)CC2)cc1`, for which the AC50 was > 26 µM (inactive).

Take `Cc1ccc(C)c(N2CCN(C(=O)CCCOc3cc(=O)n(C)c4ccccc34)CC2)c1`: the AC50 was > 12 µM (inactive).

As to `COc1cc2sc(-c3ccccc3OC)c(-c3ccc(OCCN4CCCCC4)cc3)c2cc1OC`, the AC50 was 16 µM.

For the compound `Cc1ccc(-c2cc(-c3ccc(C)cc3)[n+](-c3ccccc3)c(-c3ccc(C)cc3)c2)cc1`, the AC50 is > 26 µM (inactive).

Consider `CC(NC(=O)C1CCC(C(=O)NC(C)c2ccccc2)CC1)c1ccccc1` (stereo not given), for which the AC50 was > 26 µM (inactive).

Consider `COc1ccc(-c2sc3ccccc3c2-c2ccc(OCCN(C)C)cc2)cc1`, for which the AC50 was > 12 µM (inactive).

Regarding `Clc1ccc(C[n+]2c(-c3ccccc3)cc(-c3ccccc3)cc2-c2ccccc2)cc1`, the AC50 is > 12 µM (inactive).

Regarding `CC1=CC(=O)C(C(C)C)=C/C1=N/OS(=O)(=O)c1ccccc1`, the AC50 was > 26 µM (inactive).

On to `CC(C)OCCCNc1ncnc2c1[nH]c1ccc(F)cc12`, for which the AC50 was > 26 µM (inactive).

Regarding `CCN(CC)c1ccc(/C=N/NC(=O)c2ccc3nc[nH]c3c2)c(O)c1`, the AC50 is > 26 µM (inactive).

Turning to `O=C(NC(Nc1nc2ccc([N+](=O)[O-])cc2s1)(C(F)(F)F)C(F)(F)F)c1cccnc1`, the AC50 was > 26 µM (inactive).

With `O=c1c2ccccc2nc(N/N=C/c2c(O)ccc3ccccc23)n1O`, the AC50 was > 26 µM (inactive).

`CCOC(=O)c1cccc(-[n+]2c(-c3ccccc3)cc(-c3ccccc3)cc2-c2ccccc2)c1`: the AC50 was > 26 µM (inactive).

As to `Cc1cc(S(=O)(=O)NCc2ccncc2)c(C)cc1Br`, the AC50 is > 26 µM (inactive).

Turning to `COc1cccc(C(NC(C)=O)c2ccc3cccnc3c2O)c1` (stereo not given), the AC50 was > 26 µM (inactive).

With `CCC(=O)NC(c1cccs1)c1ccc2cccnc2c1O` (stereo not given), the AC50 is > 26 µM (inactive).

As for `COC(=O)c1cc(C)nc2c1C(=O)C(=O)C=C2N1CCOCC1`, the AC50 was > 26 µM (inactive).

On to `N#C/C(=C/c1ccc(N2CCCCCC2)o1)c1ccc(Cl)cc1`, for which the AC50 is > 26 µM (inactive).

With `C/C(Cn1nnc([N+](=O)[O-])n1)=N\NC(=O)c1ccccc1Cl`, the AC50 is > 26 µM (inactive).

In the case of `CC(=O)NN1C(=O)c2ccc3c4c(ccc(c24)C1=O)C(=O)N(NC(C)=O)C3=O`, the AC50 was > 26 µM (inactive).

For the compound `Cc1ccc(C(=O)c2c(C)oc3c2C(=O)C(=O)c2ccccc2-3)cc1`, the AC50 is > 26 µM (inactive).

For the compound `COc1ccccc1C(=O)Nc1nc(-c2ccc(S(=O)(=O)N3CCOCC3)cc2)cs1`, the AC50 is > 26 µM (inactive).

With `O=C1c2ccccc2C2=Nc3ccccc3SC(c3ccc(Cl)cc3)C12` (stereo not given), the AC50 is > 26 µM (inactive).

Take `CC(=O)c1c(C)[nH]c(C(=O)OCC(=O)Nc2ccc(Cl)cc2[N+](=O)[O-])c1C`: the AC50 was > 26 µM (inactive).

For `O=S1(=O)CCN(Cc2csc(-c3cccs3)n2)CC1`, the AC50 was > 26 µM (inactive).

For the compound `Cc1ccc(C2CC(c3cccc(Br)c3)n3nc(N)nc3N2)cc1` (stereo not given), the AC50 is > 26 µM (inactive).

`O=[N+]([O-])c1cccnc1N/N=C/c1ccccc1O`: the AC50 is > 26 µM (inactive).

For the compound `c1ccc(-[n+]2nc(Nc3cccc4ccccc34)sc2-c2c3ccccc3cc3ccccc23)cc1`, the AC50 is > 26 µM (inactive).

For `Cc1ccc2[nH]cc(/C=C/c3cc[n+](C)cc3)c2c1`, the AC50 is > 26 µM (inactive).

Consider `C/C(=N\NC(=O)c1ccccc1NC(=O)c1ccc(Cl)cc1)c1ccncc1`, for which the AC50 is > 26 µM (inactive).

Take `COc1cc(-c2nc3ccc(C)cn3c2NCc2ccccc2)ccc1SC1CCCCC1`: the AC50 is > 26 µM (inactive).

For `CN1/C(=C\C(=S)NC(=O)c2ccccc2Cl)C(C)(C)c2ccccc21`, the AC50 was > 26 µM (inactive).

For `O=C(Nc1nc2ccc([N+](=O)[O-])cc2s1)c1ccc(S(=O)(=O)N2CCCc3ccccc32)cc1`, the AC50 was > 26 µM (inactive).

Regarding `O=C(Nc1nc2ccc(F)cc2s1)c1ccccn1`, the AC50 is > 26 µM (inactive).

Consider `CCOC(=O)C1CCN(Cc2ccc(O)c3ncccc23)CC1`, for which the AC50 was > 26 µM (inactive).

`Oc1ccc2ccccc2c1N=Nc1ccccn1`: the AC50 is > 26 µM (inactive).

Take `CC(=O)Nc1ccccc1OCC(=O)c1cc(C)n(Cc2cccs2)c1C`: the AC50 is > 26 µM (inactive).

`COc1cc2cc(C(=O)N3CCOCC3)cc(-c3ccc(C)cc3)c2cc1OC`: the AC50 is > 26 µM (inactive).

`COc1ccc(OC)c(NC(=O)CSc2ncnc3c2cnn3-c2ccccc2Cl)c1`: the AC50 is > 26 µM (inactive).

`Cc1c2ccncc2c(C)c2c1[nH]c1ccccc12`: the AC50 is 1.11 µM.

`CC(=O)c1ccc(NC(=S)NC(C)c2ccc(Cl)cc2Cl)cc1` (stereo not given): the AC50 was > 26 µM (inactive).

For the compound `O=C(CCC(=O)Nc1ccc(Br)cc1)N/N=C/c1ccccc1O`, the AC50 is > 26 µM (inactive).

As to `O=C(CC1C(=O)NCCN1Cc1ccc(-c2ccccc2)cc1)NC1CCC1` (stereo not given), the AC50 is > 26 µM (inactive).

Turning to `COc1ccc(O)c(/C=N/Nc2nc(Nc3ccccc3)nc(-n3nc(C)cc3C)n2)c1`, the AC50 was > 26 µM (inactive).

For `COc1ccc(C(NC(C)=O)c2ccc3cccnc3c2O)c(OC)c1` (stereo not given), the AC50 was > 26 µM (inactive).

For the compound `Cc1ccc(S(=O)(=O)N2CCOCC2)cc1C(=O)Nc1nc(-c2ccccn2)cs1`, the AC50 is > 26 µM (inactive).

Take `Cc1cc(N2CCN(c3nc4ccccc4s3)CC2)n2ncnc2n1`: the AC50 was > 26 µM (inactive).

Turning to `CCOC(=O)C1CCN(C(=O)c2c(C)oc3c2C(=O)c2ccccc2C3=O)CC1`, the AC50 was > 26 µM (inactive).

Regarding `O=C(NCc1cccnc1)/C(=C\c1ccc(-c2cccc(Cl)c2)o1)S(=O)(=O)c1ccccc1`, the AC50 is > 26 µM (inactive).

As to `C[n+]1c2n(c3ccccc31)N=C(c1cc(C(C)(C)C)c(O)c(C(C)(C)C)c1)CS2`, the AC50 was > 26 µM (inactive).

On to `O=C(Nc1ccc(S(=O)(=O)N2CCOCC2)cc1)c1ccc([N+](=O)[O-])s1`, for which the AC50 is > 26 µM (inactive).

`COc1ccc(-c2cn(-c3ccc(OC)cc3)c3[n+]2-c2ccccc2CC3)cc1`: the AC50 is > 26 µM (inactive).

With `CCCC(=O)NC(c1ccc(C)cc1)c1ccc2cccnc2c1O` (stereo not given), the AC50 was > 26 µM (inactive).

Consider `COc1cc(CN2CCN(c3cc(C)ccc3C)CC2)ccc1O`, for which the AC50 was > 26 µM (inactive).

As to `O=[N+]([O-])c1ccc(N2CCN(CCOc3nonc3-c3ccccc3)CC2)c(Cl)c1`, the AC50 was > 26 µM (inactive).

On to `Nc1ccccc1C#CC(=O)c1ccccc1`, for which the AC50 was > 26 µM (inactive).

With `Oc1ccc(Br)cc1CNc1cccc2cccnc12`, the AC50 is > 26 µM (inactive).

As for `C=CC[n+]1c(-c2ccc(OCC)cc2)csc1NNC(=O)Nc1ccccc1`, the AC50 was > 26 µM (inactive).

With `N#CC1=C(N)N2C(=C(C#N)C1c1ccc(Br)cc1)Nc1ccccc12` (stereo not given), the AC50 is > 26 µM (inactive).

`CCCC(=O)NC(c1ccccc1OC)c1ccc2cccnc2c1O` (stereo not given): the AC50 was > 26 µM (inactive).

For the compound `Cc1ccnc(NC(=O)c2ccc([N+](=O)[O-])s2)c1`, the AC50 was > 26 µM (inactive).

For the compound `Cc1cc(F)ccc1S(=O)(=O)Nc1ccccc1C(=O)Nc1ccccc1-c1nc2ccccc2[nH]1`, the AC50 is > 26 µM (inactive).

As for `CC(NC(=O)c1cc(COc2ccc3ncccc3c2)on1)c1ccc(F)cc1` (stereo not given), the AC50 is > 26 µM (inactive).

As to `Cc1ccccc1OC1C(=O)N(Cc2ccc3c(c2)OCO3)C1c1sccc1C` (stereo not given), the AC50 was > 26 µM (inactive).

On to `Cc1nnc(N/N=C/c2ccccn2)[nH]c1=O`, for which the AC50 is > 26 µM (inactive).

Turning to `c1ccc2c(c1)ncn2CCCCOc1ccc2c(c1)CCC2`, the AC50 was > 26 µM (inactive).

Turning to `CC(CC(=O)N1CCN(c2cccc(Cl)c2)CC1)S(=O)(=O)c1ccc2c(c1)NC(=O)CO2` (stereo not given), the AC50 was > 26 µM (inactive).

In the case of `CCCCCCCC[n+]1c(C)n(-c2ccccc2)c2ccc(NC(C)=O)cc21`, the AC50 is > 26 µM (inactive).

With `CC1=CC(C)(C)N(C(=O)CSc2nnc(-c3ccc(C)cc3)o2)c2ccc(C)cc21`, the AC50 is > 12 µM (inactive).

Regarding `O=C1C(Cl)=C(Nc2ccc3cn[nH]c3c2)C(=O)c2ccccc21`, the AC50 was > 26 µM (inactive).

Take `CC(C)c1ccc(/C=C(\c2nc3ccccc3[nH]2)S(=O)(=O)c2ccccc2)cc1`: the AC50 is > 26 µM (inactive).

Consider `COC(=O)c1sccc1S(=O)(=O)Nc1ccc(N2CCCCC2)cc1`, for which the AC50 was > 26 µM (inactive).

Take `COc1cccc(Cn2c(NCc3ccco3)nc3c2c(=O)n(C)c(=O)n3C)c1`: the AC50 was > 26 µM (inactive).

Consider `Cc1cc(C)n(-c2nc(Nc3ccccc3C(F)(F)F)nc(-n3nc(C)cc3C)n2)n1`, for which the AC50 was > 26 µM (inactive).

On to `CCOC(=O)c1cnc(-n2nc(C)cc2C)nc1NCc1ccccc1`, for which the AC50 was > 26 µM (inactive).

On to `CN(C)c1cc[n+](Cc2c(Cl)cccc2Cl)cc1`, for which the AC50 was > 26 µM (inactive).

Turning to `Nc1nc(-c2ccccn2)nc(N)c1Cc1ccc(Cl)cc1Cl`, the AC50 was > 26 µM (inactive).
